Test system: NCI-H929 complex spheroids, viability % test/control
Assay: Anticancer human tumor NCI-H929 cell line growth inhibition [RAS];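 note: compound exposure lasted seven days before viability was read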
Details: for IC50: curve of first compound; for viability, T/C: stronger effect = lower value
Description: RAS pathway inhibitors in Combinations in Complex Spheroids
A high-throughput screen of multi-cell type tumor spheroids was designed to identify active combinations of RAS pathway inhibitors and targeted small molecules. Complex spheroids include a stromal component modeled by human endothelial cells (HUVEC) and fibroblasts modeled by human mesenchymal stem cells (MSCs). The concentration ranges selected for each drug and investigational agent were based upon clinically achievable concentrations if the clinical Cmax of the agent was known.
Compounds. The drugs and investigational agents: abemaciclib (NSC768073), cobimetinib (NSC768068), divarasib (GDC6063, NSC841802), docetaxel (NSC628503), GDC-1971 (RLY-1971, NSC841576), gemcitabine (NSC613327), inavolisib (NSC800729), ipatasertib (NSC767898), KB-0742 (NSC834161), MRTX-1133 (NSC836407), osimertinib (NSC779217), RMC-4630 (NSC839698), RMC-6236 (NSC851965), RMC-6291 (NSC852671), Ro-3306 (NSC812927), sapanisertib (NSC764658), SN-38 (NSC673596), staurosporine (NSC755774), SY5609 (NSC837396), and tovorafenib (DAY101, NSC766906), were obtained from the National Cancer Institute (NCI) Developmental Therapeutics Program Chemical Repository. The FDA-approved anticancer drug set is available from the NCI Developmental Therapeutics Program. […] The stock solutions were prepared in dimethyl sulfoxide (DMSO, Sigma-Aldrich, St. Louis, MO, cat. D2650) at 800-fold the tested concentration and stored at -70 degrees C prior to their use. All drugs and investigational agents were tested over a range starting from a high concentration at or near the clinical Cmax and decreasing in half-log increments. If the clinical Cmax for an agent had not been determined, the highest concentration tested was 10 microM.
Cell Culture. All cells were maintained in an incubator at 37 degrees C and 5% CO2 with 95% humidity. The PDC lines were cultured according to standard operating procedures established by the NCI PDMR. All PDCs were thawed and cultured in Matrigel-coated flasks prepared with a working solution of 1X Ham's F-12 nutrient mix, without supplementation (Invitrogen, Waltham, MA, cat. 11765054), 100 U/mL penicillin-streptomycin (Invitrogen, cat. 15140122), and 2.5% Matrigel (Corning Inc., Corning, NY, cat. 354248) for the first three passages. The 362531-283-R-J2-PDC and 782815-120-R-J1-PDC lines were cultured in 6C/Colon 1B media, which includes advanced DMEM/F-12 (Thermo Fisher Scientific, cat. 12634028), 10 mM HEPES (Thermo Fisher Scientific, cat. 15630080), 1X GlutaMAX supplement (Thermo Fisher Scientific, cat. 35050061), 0.1 mg/mL primocin (InvivoGen, San Diego, CA, cat. ant-pm-2), 10% defined fetal bovine serum, heat inactivated (HyClone Laboratories Inc., Logan, UT, cat. SH30070.03HI), 50% L-WRN conditioned media (ATCC, cat. CRL-3276), 1.25 mM N-Acetyl-L-cysteine (Sigma-Aldrich, cat. A9165), 10 mM nicotinamide (Sigma-Aldrich, cat. N0636), 1X B-27 supplement (Thermo Fisher Scientific, cat. 17504044), 1X N-2 supplement (Thermo Fisher Scientific, cat. 17502048), 50 ng/mL human EGF (Thermo Fisher Scientific, cat. PHG0311), and 10 microM Y-27632 dihydrochloride (Tocris Bioscience, cat. 1254). The K12877-001-R-J1-PDC line was cultured in 6I media, which includes all 6C/Colon 1B media plus 10 ng/mL human FGF-10 (PeproTech, cat. 100-26), 1 ng/mL human FGF-2 (PeproTech, cat. 100-18B), 1 µM prostaglandin E2 (Tocris Bioscience, cat. 2296), […] hydrocortisone (Sigma-Aldrich, cat. H4001), and […] bovine insulin (Sigma-Aldrich, cat. I6634). The K86415-001-R-J1-PDC line was cultured in 6D media, which includes all 6C/Colon 1B media components minus the L-WRN conditioned media. The 485176-168-R4-J1-PDC was cultured in PANC media, which includes all 6C/Colon 1B media plus 100 ng/mL human FGF-10 (PeproTech, cat. 100-26), 500 nM SB-431542 (Selleckchem, cat. S1067), and 10 nM gastrin (Tocris Bioscience, cat. 3006). […]

C=CC(=O)Nc1cc(Nc2nccc(-c3cn(C)c4ccccc34)n2)c(OC)cc1N(C)CCN(C)C + C=CC(=O)N1CCN(c2nc(OCC3CCCN3C)nc3c(F)c(-c4nc(N)cc(C)c4C(F)(F)F)c(Cl)cc23)C(C)C1
IC50 (second compound 0.00316 µM): > 1000 nM
IC50 (second compound 0.01 µM): > 1000 nM
IC50 (second compound 0.0316 µM): > 1000 nM
IC50 (second compound 0.1 µM): > 1000 nM
IC50 (second compound 0.316 µM): > 1000 nM
IC50 (second compound 1 µM): > 1000 nM
viability, T/C (second compound 0.00316 µM, first compound 0.00316 µM): 93.4%
viability, T/C (second compound 0.00316 µM, first compound 0.01 µM): 97.7%
viability, T/C (second compound 0.00316 µM, first compound 0.0316 µM): 102%
viability, T/C (second compound 0.00316 µM, first compound 0.1 µM): 95.2%
viability, T/C (second compound 0.00316 µM, first compound 0.316 µM): 100%
viability, T/C (second compound 0.00316 µM, first compound 1 µM): 103%
viability, T/C (second compound 0.01 µM, first compound 0.00316 µM): 101%
viability, T/C (second compound 0.01 µM, first compound 0.01 µM): 100%
viability, T/C (second compound 0.01 µM, first compound 0.0316 µM): 101%
viability, T/C (second compound 0.01 µM, first compound 0.1 µM): 101%
viability, T/C (second compound 0.01 µM, first compound 0.316 µM): 99.4%
viability, T/C (second compound 0.01 µM, first compound 1 µM): 107%
viability, T/C (second compound 0.0316 µM, first compound 0.00316 µM): 95.5%
viability, T/C (second compound 0.0316 µM, first compound 0.01 µM): 99.8%
viability, T/C (second compound 0.0316 µM, first compound 0.0316 µM): 104%
viability, T/C (second compound 0.0316 µM, first compound 0.1 µM): 99.3%
viability, T/C (second compound 0.0316 µM, first compound 0.316 µM): 103%
viability, T/C (second compound 0.0316 µM, first compound 1 µM): 104%
viability, T/C (second compound 0.1 µM, first compound 0.00316 µM): 98.1%
viability, T/C (second compound 0.1 µM, first compound 0.01 µM): 101%
viability, T/C (second compound 0.1 µM, first compound 0.0316 µM): 108%
viability, T/C (second compound 0.1 µM, first compound 0.1 µM): 99.1%
viability, T/C (second compound 0.1 µM, first compound 0.316 µM): 101%
viability, T/C (second compound 0.1 µM, first compound 1 µM): 107%
viability, T/C (second compound 0.316 µM, first compound 0.00316 µM): 101%
viability, T/C (second compound 0.316 µM, first compound 0.01 µM): 104%
viability, T/C (second compound 0.316 µM, first compound 0.0316 µM): 101%
viability, T/C (second compound 0.316 µM, first compound 0.1 µM): 99.5%
viability, T/C (second compound 0.316 µM, first compound 0.316 µM): 104%
viability, T/C (second compound 0.316 µM, first compound 1 µM): 105%
viability, T/C (second compound 1 µM, first compound 0.00316 µM): 106%
viability, T/C (second compound 1 µM, first compound 0.01 µM): 106%
viability, T/C (second compound 1 µM, first compound 0.0316 µM): 107%
viability, T/C (second compound 1 µM, first compound 0.1 µM): 105%
viability, T/C (second compound 1 µM, first compound 0.316 µM): 107%
viability, T/C (second compound 1 µM, first compound 1 µM): 106%

CC1(C)CCC(Nc2ncc(C(F)(F)F)c(-c3c[nH]c4c(P(C)(C)=O)c(C#N)ccc34)n2)CN1 (centres undefined) + CCn1c(-c2cc(N3CCN(C)CC3)cnc2C(C)OC)c2c3cc(ccc31)-c1csc(n1)CC(NC(=O)C1CC1C)C(=O)N1CCCC(N1)C(=O)OCC(C)(C)C2
IC50 (second compound 0.000949 µM): 2.23 nM
IC50 (second compound 0.003 µM): 2.53 nM
IC50 (second compound 0.00949 µM): 1.94 nM
IC50 (second compound 0.03 µM): < 0.949 nM
IC50 (second compound 0.0949 µM): < 0.949 nM
IC50 (second compound 0.3 µM): < 0.949 nM
viability, T/C (second compound 0.000949 µM, first compound 0.000949 µM): 116%
viability, T/C (second compound 0.000949 µM, first compound 0.003 µM): 26.9%
viability, T/C (second compound 0.000949 µM, first compound 0.00949 µM): 8.16%
viability, T/C (second compound 0.000949 µM, first compound 0.03 µM): 6.16%
viability, T/C (second compound 0.000949 µM, first compound 0.0949 µM): 4.71%
viability, T/C (second compound 0.000949 µM, first compound 0.3 µM): 3.65%
viability, T/C (second compound 0.003 µM, first compound 0.000949 µM): 112%
viability, T/C (second compound 0.003 µM, first compound 0.003 µM): 39.4%
viability, T/C (second compound 0.003 µM, first compound 0.00949 µM): 10.1%
viability, T/C (second compound 0.003 µM, first compound 0.03 µM): 7.4%
viability, T/C (second compound 0.003 µM, first compound 0.0949 µM): 5.4%
viability, T/C (second compound 0.003 µM, first compound 0.3 µM): 4.64%
viability, T/C (second compound 0.00949 µM, first compound 0.000949 µM): 91.8%
viability, T/C (second compound 0.00949 µM, first compound 0.003 µM): 24.4%
viability, T/C (second compound 0.00949 µM, first compound 0.00949 µM): 8.42%
viability, T/C (second compound 0.00949 µM, first compound 0.03 µM): 5.44%
viability, T/C (second compound 0.00949 µM, first compound 0.0949 µM): 5.01%
viability, T/C (second compound 0.00949 µM, first compound 0.3 µM): 4.22%
viability, T/C (second compound 0.03 µM, first compound 0.000949 µM): 16.8%
viability, T/C (second compound 0.03 µM, first compound 0.003 µM): 5.53%
viability, T/C (second compound 0.03 µM, first compound 0.00949 µM): 2.91%
viability, T/C (second compound 0.03 µM, first compound 0.03 µM): 2.43%
viability, T/C (second compound 0.03 µM, first compound 0.0949 µM): 1.95%
viability, T/C (second compound 0.03 µM, first compound 0.3 µM): 1.14%
viability, T/C (second compound 0.0949 µM, first compound 0.000949 µM): 2.94%
viability, T/C (second compound 0.0949 µM, first compound 0.003 µM): 1.38%
viability, T/C (second compound 0.0949 µM, first compound 0.00949 µM): 1.46%
viability, T/C (second compound 0.0949 µM, first compound 0.03 µM): 0.67%
viability, T/C (second compound 0.0949 µM, first compound 0.0949 µM): 0.66%
viability, T/C (second compound 0.0949 µM, first compound 0.3 µM): 0.53%
viability, T/C (second compound 0.3 µM, first compound 0.000949 µM): 1.65%
viability, T/C (second compound 0.3 µM, first compound 0.003 µM): 0.63%
viability, T/C (second compound 0.3 µM, first compound 0.00949 µM): 0.85%
viability, T/C (second compound 0.3 µM, first compound 0.03 µM): 1.47%
viability, T/C (second compound 0.3 µM, first compound 0.0949 µM): 0.57%
viability, T/C (second compound 0.3 µM, first compound 0.3 µM): 0.6%
